Assays:
[1] = system: induced cortical neurons; assay: Cyquant cell viability assay during induction of cortical neurons; assay type: cell-based, human; conditions: FIG. 6n; cortical neuron induction
Protocol: For cortical neuron differentiation, 6-well culture plates were coated with 50 μg/mL poly-Lysine (SIGMA, P6407) and incubated for more than 3 h in a 37° C. incubator after plate laying; then further coated with 3 μg/mL laminin (Laminin, 12020, SIGMAALDRICH) and incubated for more than 3 h at 37° C. after plate laying. The induced nerve stem cells obtained in Example 3 was re-inoculated into T25 culture plates at a rate of 1×105 per vial. Neural stem cells were cultured using NouvNeu culture medium at 37° C. and 5% CO2 (Panasonic, MCO-18AC), and the medium was replaced with fresh medium every three days until neurons formation on day 30. In the control experiment, N2B27 medium was used for neuron induction, and the specific operation steps were the same as above.
The Cyquant assay is used for quantitative detection of cell viability to compare the effects of different medium components on the physiological state of cells during long-term cell culture. […] Samples were taken on day 1, day 10, day 15 and day 35, and cell viability assays were performed using CyQuant Kit (Invitrogen, X12223) and operated according to the instruction manual, and using SpectraMax i3Multi-Mode Microplate Reader (VWR, Model ID3-STD) for data reading. […]

[2] = system: human neural cell line ReNcell VM; assay: Cyquant cell viability assay, neural cell line, compound concentration screening; assay type: cell-based; conditions: only this component's concentration changed
Protocol: 6-well culture plates were coated with 50 μg/mL polylysine (SIGMA, P6407) and incubated for more than 3 h at 37° C. in a thermostat after plate laying; then further coated with 5 μg/mL Laminin (I2020, SIGMAALDRICH) and incubated for more than 3 h at 37° C. in a thermostat after plate laying. Mouse primary cells and the human neural cell line ReNcell VM were cultured, where mouse primary cell isolation was performed according to the method described in Nature Protocols. Volume 7, pages 1741-1754 (2012). Cell culture conditions were 37° C., 5% carbon dioxide (Panasonic, MCO-18AC), and cell adherent culture. The culture medium of the present invention, Neuralbasal+I0% FBS and N2B27 culture medium were used for comparison, respectively. Cell passage was digested with 0.05% trypsin/EDTA at 37° C. for 5 min, and the cell digestion was terminated with DMEM+10% FBS. […]
The Cyquant assay is used for quantitative detection of cell viability to compare the effects of different medium components on the physiological state of cells during long-term cell culture. […] Samples were taken on day 1, day 5, day 15 and day 30, and cell viability assays were performed using CyQuant Kit (Invitrogen, X12223) and operated according to the instruction manual, and using SpectraMax i3 Multi-Mode Microplate Reader (VWR, model ID3-STD) for data reading. […]

Question: What does the source list for `O=C[C@H](O)[C@@H](O)[C@@H](O)[C@H](O)CO` [D(+)-galactose]?
Answer: use range of concentration in the medium (Cyquant) [1]: 5 to 25 µg/mL; use range of concentration in the medium (Cyquant) ([2]; FIG. 2b): 5 to 25 µg/mL

Question: “recombinant human transferrin: recombinant human transferrin, component of the NouvNeu medium” was tested. Which “use range of concentration in the medium (Cyquant)” value ([2]; FIG. 2d) did it give?
Answer: The value was 0.05 to 0.2 µg/mL.

Reference: patent publication US20230416688A1, “CHEMICAL CULTURE SYSTEM AND USE THEREOF” (IREGENE THERAPEUTICS LTD, priority 2020, published 2023)
